Reference: article PMC4891657, “Orexin 2 Receptor Antagonism is Sufficient to Promote NREM and REM Sleep from Mouse to Man” (Scientific Reports, 2016)
Where two headings read alike, the source gives them in different places.

Legend:
[1] = Safety and tolerability, ascending single-dose study; type: in vivo, human
Excerpt: In the ascending single-dose study, 52 AEs were considered to be related to the study drug, the most common of which was somnolence/sleepiness, drowsiness, and tiredness (15 of 16 subjects dosed with MK-1064), consistent with the intended pharmacological activity. […] In the PSG study, 13 of the 20 subjects enrolled reported ≥1 clinical AE. Of 24 clinical AEs reported, 18 were considered to be related to study treatment, all of which were mild or moderate in intensity. One report of transient sleep paralysis following MK-1064 250 mg was noted, while the most common MK-1064-related AEs were headache (3 subjects), nightmares (2 subjects) and dizziness (1 subject) (Supplementary Table 2).
(§1) MK-1064 safety, PK and PD were evaluated in a randomised, double-blind, placebo-controlled, alternating panel, single oral ascending-dose first-in-human study (see Fig. 5). Participants were unmedicated healthy male subjects (age 18–45 years) without a history of physical or mental illnesses or sleep abnormalities. Two panels received alternating single ascending oral doses of MK-1064 in up to 5 treatment periods (Panel A: 5, 25, 100 and 200 mg [fasting conditions], 25 mg [fed condition], or matching placebo; Panel B: 10, 50, 150 and 250 mg [all daytime administration], 50 mg [evening administration], or matching placebo). Within each period, subjects were randomized to active treatment (N = 6) and placebo (N = 2) groups. There was a minimum of 3 days between ascending doses occurring between alternating subject panels to enable safety data review; treatments within subject panels were separated by a minimum 7-day washout period. The safety and tolerability of MK-1064 were monitored throughout the study by repeated evaluations of AEs, clinical assessments (semi-recumbent and orthostatic vital signs measurements, 12-lead electrocardiograms (ECGs), physical examinations, neurologic examinations), and safety laboratory tests (chemistry, hematology, urinalysis).

sleep = assay: Polysomnography in healthy male subjects; type: in vivo, human
Protocol: In the PSG study, subjects underwent 8-hour PSG recording periods beginning 1 hour after nighttime administration of MK-1064 (50, 120 and 250 mg) or placebo. […] Dose-dependence of the effects of MK-1064, while not evaluated statistically, was most pronounced with regard to LPS, LREM and REM sleep, and to a lesser extent, TST and WASO sleep (Fig. 7b).
Figure 7 MK-1064 promotes sleep in healthy subjects. MK-1064 (50, 120 and 250 mg) or placebo were administered 1 hour prior to the normal resting phase in healthy subjects (N = 20), and PSG effects were monitored during the normal resting phase.
Twenty healthy male subjects between the ages of 18 and 45 years were recruited to a double-blind, randomized, 4-period, crossover study to evaluate the effects of single doses of MK-1064. Subjects were without a history of physical or mental illnesses, had no history of sleep abnormalities, and were not regularly taking medication. Subject inclusion required a sleep score ≤6 on the Pittsburgh Sleep Quality Index at the time of screening, and qualified subjects underwent a PSG screening prior to randomization to exclude those with latent sleep disturbances. In each of the 4 treatment periods, subjects were randomized to receive single doses of MK-1064 (50, 120, or 250 mg) or matching placebo according to a balanced crossover design (see Fig. 5). Briefly, 20 subjects were randomized to 4 panels (n = 5 each). Each panel then received each of the four treatments (placebo, 50, 120, 250 mg MK-1064) in 4 different study periods where each period allocated the 4 different treatments to the 4 different subject panels. Progression through each period rotated the 4 different treatments among the subject panels such that each panel ultimately received all 4 treatments. In all 4 study periods, subjects were admitted for a pre-dose habituation night. On the following treatment night, subjects were administered a single dose of study medication in a blinded manner approximately 1 hour before their habitual bedtime. Study medication was administered following a ≥4-hour fast. Dosing in different treatment periods was separated by a washout of at least 7 days for each subject. PSG recording commenced at 1 hour post-dose and continued during undisturbed sleep for 8 hours overnight. Visual scoring of each 30-sec epoch of PSG recording to wake or one of four sleep states (S1, S2, SWS, collectively referred to as NREM, and REM) was performed according to standard and established Rechtschaffen and Kales criteria. Obtained scores were then used to calculate efficacy assessment measures including latency to persistent sleep (LPS) (min), wake after sleep onset (WASO) (min), sleep efficiency (SE) (%), and total sleep time (TST) (min). LPS is the time from lights off to the first epoch of 20 consecutive epochs of non-wake stage; WASO is the time in wake stage between the onset of persistent sleep and the time of lights on; and SE is the proportion of time between lights off and lights on that was spent in sleep. In addition to efficacy parameters, latency to REM (LREM) (min), equal to the time from lights off to the first epoch of REM, and the proportion (%) of TST spent in NREM and REM were calculated. Estimation of the effects of treatment on PSG endpoints relative to placebo, including the calculation of confidence intervals and p-values were done using a mixed-effect statistical model typical for crossover studies. Specifically, logarithm of an analyzed endpoint represented the response variable, and treatment dose, treatment period, and carryover effect were fixed-effect explanatory variables. Subject effect was the random effect with the within-subject covariance assumed to be of the unstructured type. […] SAS/STAT® Version 9.3 software (SAS Institute, Cary NC) was used in the analysis.

[2] = Pharmacokinetics, ascending single-dose study in healthy male subjects; type: in vivo; conditions: human, plasma, single oral doses 5 to 250 mg; for half-life: male, po
Protocol: In the ascending single-dose study, doses of MK-1064 ranging from 5 to 250 mg corresponded with dose-dependent changes in measured plasma levels (Fig. 6a). […] The greatest effects were observed between 1 and 4 hours, and effects greatly diminished 8 hours following treatment, consistent with the time course of plasma concentrations of MK-1064.
as §1
During each treatment period, blood was collected for PK analysis pre-dose and at time points up to 72 hours post-dose. MK-1064 plasma concentrations were determined by reverse phase high-performance liquid chromatography and detected with tandem mass spectrometry. The lower limit of quantitation was 1 ng/mL and the linear calibration range was 1–1000 ng/mL. PK parameters were calculated with WinNonLin 5.2.1. Values below the assay limit of quantification were indicated with a zero value. PD effects on arousal and mood were assessed by the Karolinska Sleepiness Scale (KSS)[45] and Bond and Lader Visual Analogue Scale (VAS)[46] in exploratory endpoints.

sleep/wake stages = assay: Polysomnography in telemetered wild-type and OX2R knockout mice; type: in vivo, mouse; conditions: 30 mg/kg oral
Protocol: Polysomnography (PSG) responses to MK-1064 (30 mg/kg) were evaluated following oral administration during the late active phase (administered at Zeitgeber time [ZT] 20:00) either in wild-type or OX2R knockout telemetered mice.
(a) The mean time spent in active wake, light sleep (LS), SWS, and REM sleep during 30-min intervals was determined in wild-type (left panel; n = 5) and OX2R knockout (right panel; n = 7) mice following administration of MK-1064 30 mg/kg (open circles) relative to vehicle (20% vitamin E TPGS, orally; closed circles) during the late active phase (ZT: 20:00). Time points at which significant differences exist between vehicle and MK-1064 responses are indicated by grey vertical lines (*, **, ***p < 0.05, 0.01, 0.001, respectively; linear mixed-effects model for repeated measures).
Continuous PSG recordings were performed following oral MK-1064 or vehicle (20% vitamin E d-alpha tocopheryl polyethylene glycol 1000 succinate [TPGS]) administration. In rodents, electrocorticogram (ECoG) and electromyogram (EMG) and locomotor activity measured via radio-telemetry were scored in 10 second epochs to define light sleep (LS; no movement, moderate EMG tone, theta with <50% delta ECoG [0.5–4 Hz]), slow wave sleep (SWS; no gross movement, reduced EMG, >50% delta ECoG) and rapid eye movement sleep (REM; no movement, little to no EMG activity, primarily theta ECoG [4–7 Hz] activity)[42]. Scored data were then grouped and compiled according to condition (vehicle or compound treatment) averaged over the indicated times (30 minutes or 2 hours) and analyzed statistically as previously described[1][14][40][42]
In male wild-type and Hcrtr1 and 2 homozygous, double knockout mice (Taconic Farms, Germantown, NY), MK-1064 or vehicle was administered during the late active phase (ZT: 20:00, 4 hours before lights on). The effect of compound treatment was assessed using a counterbalanced crossover design in which all animals were alternately treated with drug and vehicle daily for 5 consecutive days with a 2-day intervening washout period. In both mice and rats, the mean time in active wake, LS, SWS and REM sleep was determined for each 30-minute interval. The level of significance for the differences between mean time spent in each stage between the vehicle- and compound-treated groups was determined by a linear mixed-effects model for repeated measures applied t-test, and mean within-subject change relative to vehicle over 2 hours following dosing was analyzed using within-subject ANOVA to determine main effects and one sample t-test to identify significant changes relative to vehicle.

[3] = healthy subjects, two highest doses (120, 250 mg)
[4] = wild-type mice, ZT 20:00, vs vehicle

COc1ccc(CNC(=O)c2cc(-c3cncc(Cl)c3)cnc2-c2ccccn2)nc1OC [MK-1064, 5″-chloro-N-[(5,6-dimethoxypyridin-2-yl)methyl]-2,2′:5′, 3″-terpyridine-3′-carbo xamide]
subjects who experienced headaches ([1]; ascending single-dose study): Nine
suspected serious adverse reactions ([1]; ascending single-dose study): no suspected serious adverse reactions were observed
AEs considered to be related to the study drug ([1]; ascending single-dose study, 5–250 mg): 52
subjects with somnolence/sleepiness, drowsiness, and tiredness ([1]; ascending single-dose study, subjects dosed with MK-1064): 15 of 16
tolerability ([1]; both Phase I studies, healthy male subjects): well tolerated
time spent in Stage 2 (sleep; healthy subjects, 120 mg): significant increase
LPS as fraction of placebo response (sleep; healthy subjects, 50, 120 and 250 mg (all doses)): significant reductions
WASO as fraction of placebo response (sleep; [3]): significant reductions
reduction in LREM versus placebo (sleep; [3]): statistically significant
NREM sleep (sleep; healthy subjects, two lower doses (50, 120 mg)): increases in NREM sleep
time spent in Stage 1 and SWS (sleep; healthy subjects, vs placebo): not significantly different from placebo
Cmax [2]: 0.37 to 8.28 µM
Tmax ([2]; read-out: median time of peak concentrations (Tmax)): 1 to 2 h
half-life ([2]; read-out: alpha phase half-life): 1.6 to 4 h
half-life ([2]; read-out: mean apparent terminal half-life): 6.8 to 11.1 h
changes in wake, SWS and REM in OX2R knockout mice (sleep/wake stages; OX2R knockout mice, ZT 20:00): absent
time following treatment with active wake reduction and significant increases in SWS and REM (sleep/wake stages; wild-type mice, ZT 20:00): up to 3.5 hours
REM quantitated over 2 hours (sleep/wake stages; [4]): trend toward an increase
changes in wake and SWS quantitated over 2 hours (sleep/wake stages; [4]): reached significance
